From ChEMBL document CHEMBL1151039, “Muscarinic antagonist activity of 3-(5-alkoxy-oxazol-2-yl)-1,2,5,6-tetrahydropyridines” (Bioorg Med Chem Lett, 1994) come the findings set out here.

Structures are written as SMILES. pIC50: −log10 of the molar value.

The test system of the first assay is Mus musculus. As to the kind of experiment: In vivo antagonist activity measured as inhibition of oxotremorine induced tremors in mice at 1 mg/kg of ip administration. It is filed as functional. The conditions noted are these: route intraperitoneal.
`CN1[C@@H]2C[C@@H](OC(=O)[C@H](CO)c3ccccc3)C[C@H]1[C@@H]1O[C@@H]12` [SCOPOLAMINE] had an AD50 of 0.1 mg/kg.

The next assay deals with Muscarinic acetylcholine receptor. As to the kind of experiment: Inhibition of [3H]pirenzepine binding to muscarinic receptor in rat cortical homogenates.
Conditions: not given
Broadly, the Ki is a dissociation constant, usually derived from enzyme kinetics or from competition with a known ligand. The compound `CCC(C)c1nc(C2=CCCN(C)C2)oc1OC` (stereo not given) displayed an inhibition constant Ki of 2 nM. This counts as single-digit nanomolar.

As to `COc1oc(C2=CCCN(C)C2)nc1C(C)C`, the Ki is recorded as 10 nM.

In the case of `COc1oc(C2=CCCN(C)C2)nc1CC(C)C`, the Ki turned out to be 25 nM.

With `CCOc1oc(C2=CCCN(C)C2)nc1C(C)CC` (stereo not given), the Ki was found to be 0.8 nM.

As for `COc1oc(C2=CCCN(C)C2)nc1C`, the inhibition constant Ki was 90 nM.

Consider `CCCOc1oc(C2=CCCN(C)C2)nc1C(C)CC` (stereo not given), for which the inhibition constant (Ki) is 0.8 nM. Compared with the last compound, the Ki is about 110-fold lower.

In turn, `CCCCCCOc1oc(C2=CCCN(C)C2)nc1C(C)CC` (stereo not given) came in with an inhibition constant Ki of 22 nM. Against the preceding compound, the Ki is about 28-fold higher.

As for `CCCCc1nc(C2=CCCN(C)C2)oc1OC`, the Ki came out at 11 nM.

`COc1cnc(C2=CCCN(C)C2)o1` displayed a Ki of over 1000 nM.

`CCOc1oc(C2=CCCN(C)C2)nc1C`: the Ki amounted to 33 nM.

With `COc1oc(C2=CCCN(C)C2)nc1Cc1ccccc1`, the Ki stood at 16 nM.

In the case of `CCc1nc(C2=CCCN(C)C2)oc1OC`, the Ki stood at 30 nM.

In turn, `CCCCOc1oc(C2=CCCN(C)C2)nc1C(C)CC` (stereo not given) registered a Ki of 1.5 nM.

The species named for another assay is Rattus norvegicus. The assay is described as follows: In vitro inhibition of acetylcholine induced phosphatidyl inositol hydrolysis in a rat cerebral cortex slice preparation. Format: functional.
Conditions: not given
Usually pIC50 stands for the IC50 on a negative log10 scale, so that one unit is a factor of ten. For the compound `CN1[C@@H]2C[C@@H](OC(=O)[C@H](CO)c3ccccc3)C[C@H]1[C@@H]1O[C@@H]12` [SCOPOLAMINE], the pIC50 is 8.05.
